# Test results reported in patent US10900927B2, “Graphene field effect transistors for detection of ions” (UNIVERSITY OF SOUTH CAROLINA, priority 2018, dated 2021).
# Experiments:
# [1] = system: Ca2+-activated non-selective cation (NSC) channels on the T84 cells; experiment: K+ efflux of T84 cells activated with A23187, measured with the GISFET; format: cell-based, human; set-up: dose or concentration left out as unconfirmed; conditions: T84 cells in normal saline solution
# Description: In Example 2, GISFETs as contemplated by the present invention were fabricated as described in Example 1 and were then used to measure the K^+ efflux of human colonic epithelial cells. FIG. 9 is a schematic illustrating the use of the graphene ion sensitive field effect transistor (GISFET) of the present invention to determine the K^+ efflux from cells.
# Specifically, human colonic T84 epithelial cells were used to investigate performance of the GISFET of the present invention. The Ca^2+-activated non-selective cation (NSC) channels on the T84 cells were activated with Ca^2+ ionophore A23187 ([…]), and then the corresponding K^+ efflux was detected and quantified by measuring the extracellular K+ ion concentration.
# First, and referring to FIG. 9, cells 150 were plated on 25 millimeter diameter graphene-coated glass coverslips 148 and placed underneath of a specially designed mold 146 in a well plate 144. […]
# Referring now to FIG. 10, after about 2 minutes of stabilization of the GISFET 101 in the buffer solution 152 in the well plate 144, the A23187 activating chemical was added to the well plate 144, which caused a consistent increase in current for about 20 minutes thereafter. […] By calculating the K^+ concentration based on the calibration data, the K^+ concentration could then be determined to be about 50 uM. […]
# [2] = K+ versus Na+; cited from earlier work
Compound,duration of consistent increase in GISFET current after addition [1],extracellular K+ concentration from K+ efflux after activation ([1]; calculated from GISFET calibration data),selectivity to K+ ions over Na+ ions (weaker valinomycin-Na+ complex) [2]
CNc1ccc2oc(C[C@H]3O[C@@]4(CC[C@H]3C)O[C@H]([C@H](C)C(=O)c3ccc[nH]3)[C@H](C)C[C@H]4C)nc2c1C(=O)O [A23187],about 20 minutes,about 50 uM,
CC(C)[C@@H]1NC(=O)[C@H](C)OC(=O)[C@@H](C(C)C)NC(=O)[C@@H](C(C)C)OC(=O)[C@H](C(C)C)NC(=O)[C@H](C)OC(=O)[C@@H](C(C)C)NC(=O)[C@@H](C(C)C)OC(=O)[C@H](C(C)C)NC(=O)[C@H](C)OC(=O)[C@@H](C(C)C)NC(=O)[C@@H](C(C)C)OC1=O [valinomycin],,,"10,000 fold"
